Data as given in US20230255962A1, “COMBINATION OF A BTK INHIBITOR AND AN INHIBITOR OF CDK9 TO TREAT CANCER” (ASTRAZENECA AB, priority 2017, published 2023).

Assays:
TMD8 [1] = test: Western blot time course, cleaved caspase-3 (induction of apoptosis); format: cell-based; conditions: TMD8, 100 nM AZD4573 8-hour time course, alone or following 24-hour pre-treatment with 100 nM acalabrutinib
Description: (§1) Two BTK inhibitor-sensitive ABC-DLBCL cell lines (OCILy10 and TMD8) and one insensitive GCB-DLBCL cell line (Karpas422) were treated for an 8-hour time course with either 100 nM AZD4573 alone or following a 24-hour pre-treatment with 100 nM acalabrutinib (since exposure to acalabrutinib for 24 hours was sufficient to induce maximal BH3-only protein levels). Cells were harvested for protein lysates at varying time points (0, 0.5, 1, 2, 4, and 8 hours) post-AZD4573 treatment, normalized for protein concentration using the BCA Protein Assay Kit, and run for western blots according to standard protocols. To ensure expected target engagement was achieved, the blots were probed for the proximal and distal biomarkers for CDK9 (pSer2-RNAPolII and Mcl-1, respectively) and the biomarker for activated BTK (pBTK). To gauge the time to induction of apoptosis, cleaved caspase-3 was also assessed. A loading control (vinculin) was also utilized for normalization.

OCILy10 [2] = test: as above; format: cell-based; conditions: OCILy10, 100 nM AZD4573 8-hour time course, alone or following 24-hour pre-treatment with 100 nM acalabrutinib
Description: as §1
The BTK inhibitor-sensitive ABC-DLBCL cell line OCILy10 was treated in vitro for an 8-hour time course with either 100 nM AZD4573 alone or following a 24-hour pre-treatment with 30 nM ibrutinib since, similar to acalabrutinib, exposure for 24 hours was sufficient to induce maximal BH3-only protein levels (data not shown). […] To gauge the time to induction of apoptosis, cleaved caspase-3 was also assessed. […]

OCILy10 tumor cells = test: Subcutaneous tumor model, tumor volume; format: in vivo, C.B.-17 SCID female mice; conditions: OCILy10, following 3 cycles of dosing; AZD4573 ip BID 2 on/5 off, ibrutinib 12 mg/kg po QD
Description: AZD4573 was formulated in dimethylacetamide (DMA)/polyethylene glycol 400 (PEG 400)/1% w/v Tween 80 solution 2/30/68 and dosed at 5 mL/kg, intraperitoneally (ip), BID with a 2 hour split on days 1 and 2 followed by a 5 day dose holiday; i.e., a 2 on/5 off schedule. […]
5×10^6 OCILy10 tumor cells or 10×10^6 TMD8 tumor cells were injected subcutaneously in the right flank of C.B.-17 SCID female mice in a volume of 0.1 mL containing 50% matrigel. 10×10^6 Karpas-422 tumor cells were injected subcutaneously in the right flank of SCID beige female mice in a volume of 0.1 mL containing 50% matrigel. Tumor volumes (measured by caliper), animal body weight, and tumor condition were recorded twice weekly for the duration of the studies. The tumor volume was calculated using the formula: length (mm)×width (mm)^2×0.52. For efficacy studies, growth inhibition from the start of treatment was assessed by comparison of the differences in tumor volume between control and treated groups. […]
AZD4573 was formulated in dimethylacetamide (DMA)/polyethylene glycol 400 (PEG 400)/1% w/v Tween 80 solution 2/30/68 and dosed at 5 mL/kg, intraperitoneally (ip), bi-daily (BID) with a 2 hour split on days 1 and 2 with a 5 day dose holiday. […] Tumor volumes (measured by caliper), animal body weight, and tumor condition were recorded twice weekly for the duration of the studies. […]

OCILy10 [3] = test: TMRE/DAPI flow cytometry, percentage of apoptotic or dead cells; format: cell-based
Description: (§2) Two BTK inhibitor-sensitive ABC-DLBCL cell lines (OCILy10 and TMD8) and one insensitive GCB-DLBCL cell line (Karpas422) were treated with either vehicle (DMSO), 100 nM acalabrutinib, or 100 nM AZD4573 for varying lengths of time as either single agent or in combination. Since exposure of BTKi-sensitive cell lines to acalabrutinib for 24 hours was sufficient to induce maximal BH3-only protein levels relative to vehicle-treated cells (FIG. 1), 24-hour pre-treatment of acalabrutinib was chosen for one of the combination sequences. Therefore, cells were treated with: 32 hours of acalabrutinib alone; 8 hours of AZD4573 alone; 8 hours of AZD4573 and acalabrutinib dosed concurrently; or 32 hours of acalabrutinib with AZD4573 added sequentially for the final 8 of those 32 hours (in other words, 24 hours of acalabrutinib pre-treatment).
(§3) The percentage of apoptotic or dead cells was determined by staining the samples with both tetramethylrhodamine, ethyl ester (TMRE) and 4′,6-diamidino-2-phenylindole (DAPI) and then subjecting them to flow cytometry using a BD LSR Fortessa. TMRE is a positively charged dye that accumulates in active mitochondria, and cells undergoing apoptosis experience mitochondrial outter membrane permeabilization (MOMP), which then fails to retain TMRE. […] Following appropriate treatments, cells were stained directly with 200 nM TMRE, incubated for 30 minutes at 37° C., resuspended in flow buffer containing DAPI, and subjected to flow cytometry. Flowjo was used to establish appropriate gates according to viability (DAPI) and MOMP (TMRE), and viable cells were defined as those with low DAPI and high TMRE staining.

TMD8 [4] = test: Western blot of Bcl2 family / BH3-only protein levels; format: cell-based
Description: (§4) OCILy10, TMD8, and Karpas422 were treated with either vehicle or 100 nM acalabrutinib for 2 to 72 hours. Protein lysates were harvested at multiple time points in that interval, protein concentration was determined using the BCA Protein Assay Kit, and Western blots were performed according to standard protocol to assess the effects on Bcl2 family protein levels. Each sample was normalized to vinculin as a loading control, and then protein levels of acalabrutinib-treated samples were calculated relative to those of vehicle-treated samples.

Karpas422 [5] = test: as above; format: cell-based; conditions: Karpas422, 100 nM acalabrutinib
Description: as §4

OCILy10 [6] = test: as above; format: cell-based
Description: as §4
The BTK inhibitor-sensitive ABC-DLBCL cell line OCILy10 was treated in vitro for an 8-hour time course with either 100 nM AZD4573 alone or following a 24-hour pre-treatment with 30 nM ibrutinib since, similar to acalabrutinib, exposure for 24 hours was sufficient to induce maximal BH3-only protein levels (data not shown). Cells were harvested for protein lysates at varying time points (0, 0.5, 1, 2, 4, and 8 hours) post-AZD4573 treatment, normalized for protein concentration using the BCA Protein Assay Kit, and run for Western blots according to standard protocols. To ensure expected target engagement was achieved, the blots were probed for the proximal and distal biomarkers for CDK9 (pSer2-RNAPolII and Mcl-1, respectively) and the biomarker for activated BTK (pBTK). […] To gauge the time to induction of apoptosis, cleaved caspase-3 was also assessed. […]

OCILy10 [7] = test: CellTiter-Glo viability readout, 72 hours, GI50; format: cell-based; conditions: OCILy10, 10-point dose-response
Description: (§5) Two ABC-DLBCL (OCILy10 and TMD8) cell lines and one GCB-DLBCL (Karpas422) cell line were treated with either vehicle (DMSO) or a 10-point, ½ log serially dilution of acalabrutinib for 72 hours with a CellTiter-Glo viability readout. The concentration at which 50% growth is inhibited (GI50) was calculated using GraphPad Prism or GeneData.

TMD8 [8] = test: CellTiter-Glo viability readout, 72 hours, GI50; format: cell-based; conditions: TMD8, 10-point dose-response
Description: as §5

Karpas422 [9] = test: TMRE/DAPI flow cytometry, percentage of apoptotic or dead cells; format: cell-based; conditions: Karpas-422, 100 nM acalabrutinib alone or in combination with 100 nM AZD4573
Description: as §2, §3

| Compound | induction of cleaved caspase (TMD8 [1]) | induction of cleaved caspase (OCILy10 [2]) | complete response, % of treated animals (OCILy10 tumor cells) [%] | cell death (OCILy10 [3]; OCI-LY-10, 8 hours of 100 nM AZD4573 alone) [%] | time to maximal BH3-only protein levels following dosing (TMD8 [4]; BTK inhibitor-sensitive cells (TMD8), 100 nM) [h] | levels of pro-apoptotic BH3-only proteins Bim and Bmf (TMD8 [4]; TMD8, 100 nM acalabrutinib, 24 hours, relative to the insensitive cell line) | BH3-only protein levels (Karpas422 [5]) | time to maximal BH3-only protein levels following dosing (OCILy10 [6]; BTK inhibitor-sensitive cells (OCILy10), 100 nM) [h] | levels of pro-apoptotic BH3-only proteins Bim and Bmf (OCILy10 [6]; OCILy10, 100 nM acalabrutinib, 24 hours, relative to the insensitive cell line) | sensitivity to BTK inhibition (dose-response) (OCILy10 [7]) | sensitivity to BTK inhibition (dose-response) (TMD8 [8]) | cell death (OCILy10 [3]; OCI-LY-10, 32 hours of 100 nM acalabrutinib alone) [%] | effect on apoptotic/dead cells (Karpas422 [9]) |
| --- | --- | --- | --- | --- | --- | --- | --- | --- | --- | --- | --- | --- | --- |
| CC(=O)N[C@@H]1CCC[C@H](C(=O)Nc2cc(-c3cnn4c3CC(C)(C)C4)c(Cl)cn2)C1 [AZD4573, (1S,3R)-3-acetamido-N-(5-chloro-4-(5,5-dimethyl-5,6-dihydro-4H-pyrrolo[1,2-b]pyrazol-3-yl)pyridin-2-yl)cyclohexanecarboxamide] | mild caspase activation by 8 hours | mild caspase activation by 8 hours | 100 | ~40 |  |  |  |  |  |  |  |  |  |
| CC#CC(=O)N1CCC[C@H]1c1nc(-c2ccc(C(=O)Nc3ccccn3)cc2)c2c(N)nccn12 [acalabrutinib, (S)-4-(8-amino-3-(1-but-2-ynoylpyrrolidin-2-yl)imidazo[1,5-a]pyrazin-1-yl)-N-(pyridin-2-yl)benzamide] |  |  |  |  | ≤ 24 | increased | did not increase | ≤ 24 | increased | sensitive | sensitive | ~20 | minimal effect |
